“Also recorded” adds a separate entry of the source.
Legend:
mAb1 [1] = assay: mAb1 light stress study, 16 hours; Fab/Fc oxidation by RP-HPLC; assay type: physicochemical, human; details: for Fab oxidation increase over the control level (mAb1 Ref Mat): label mAb1 = No Excipient
Experimental: (§1) The fragments were reduced with DTT, and then separated and identified via Liquid Chromatography-Mass Spectrometry (LC-MS). […] Comparison of area integrated under the oxidized and native peaks was used to quantify HC Fab and Fc oxidation. […] By using the papain digest RP-HPLC method in the present study it was possible to investigate Trp residue oxidation by quantifying HC Fab oxidation, and Met residue oxidation by quantifying HC Fc oxidation.
Antioxidants were added at 1 mM. Glass vials containing these formulations were exposed to 250 W/m^2 light in an Atlas SunTest CPS+ Xenon Test Instrument (Chicago, Ill.). Control vials were wrapped in aluminum foil and treated similarly. After light exposure, solutions were prepared for analysis by reverse-phase HPLC as described above.

[2] = Photosensitivity screening: H2O2 formation by antioxidant candidates upon light exposure (Amplex Ultra Red Assay); assay type: physicochemical
Experimental: As a screening tool, antioxidant candidates were exposed to light for four hours at 250 W/m^2 and the resulting H2O2 formation was quantified by the Amplexassay. Specifically, antioxidants were prepared to 1 mM in 20 mM histidine acetate buffer at pH 5.5. The 1 mM antioxidant solutions were aliquoted into glass vials (2 mL/glass vial) and exposed to four hours of light at 250 W/m^2 in an Atlas SunTest CPS+ Xenon Test Instrument (Chicago, Ill.). Total UV dose was 90 watt-hours/square meter and total visible dose was 0.22 million lux hours over the 4-hour period. Control vials were wrapped in aluminum foil and treated similarly. The amount of hydrogen peroxide generated after exposure to light was measured using the Amplex® Ultra Red Assay (Invitrogen, Carlsbad, Calif.) following the manufacturer's recommended procedure. On addition of horseradish peroxidase (HRP), the dye reacted 1:1 stoichiometrically with H2O2, resulting in the production of fluorescent oxidation product resorufin. In this study, fluorescence readings were obtained using a Spectra Max M2 Micro-plate Reader (Molecular Devices, Sunnyvale, Calif.) with excitation and emission set at 560 nm and 590 nm, respectively. Final H2O2 concentrations were determined using a standard curve ranging from 0 μm to 20 μm. […]

[3] = Cyclic voltammetry (CV) screening of oxidation potentials; assay type: physicochemical; details: for Oxidation Potential (anodic peak): glassy carbon working electrode, 0.2 M lithium perchlorate
Experimental: The oxidation/reduction characteristics of the compounds were investigated. Several compounds, including L-Trp and derivatives, were evaluated for the protection of Trp oxidation in proteins using cyclic voltammetry (CV) and rank ordered based on their oxidation potentials (Table 2). Specifically, the candidate antioxidants were dissolved in deionized water and then added to a 0.2 M lithium perchlorate electrolyte solution. […] Solutions were scanned from −0.10 V to +1.50 V at a scan rate of either 100 or 500 mV/sec. The analytical cell was purged for four minutes with nitrogen before scanning of each antioxidant solution. The input was a linear scan of the potential of a working electrode, and the output was measurement of the resulting current. […] Redox reactions were characterized by sharp increases or decreases in current (peaks). The potential at which an oxidation reaction occurred was referred to as the anodic peak potential (or oxidation potential), and the potential at which a reduction occurred was referred to as is the cathodic peak (or reduction) potential.

mAb1 [4] = assay: mAb1 AAPH stress study; Fab/Fc oxidation by RP-HPLC; assay type: physicochemical, human; details: antioxidants at 1 mM; for Fab (Trp residue) oxidation of mAb1 after AAPH incubation: 24 hours at 40° C., label mAb1 = no excipient
Source text: as §1
% Fab oxidation and % Fc oxidation were calculated as follows: […]
Antioxidants were added at 1 mM. […] After buffer exchange, each solution was prepared for analysis by reverse-phase HPLC as described above.

mAb1 [5] = assay: mAb1 light stress, eight hours, with L-Trp and L-Met; Fab/Fc oxidation by papain digest RP-HPLC; assay type: physicochemical, human; details: label mAb1 = No Excipient
Experimental: L-tryptophan (L-Trp), an antioxidant used in protein formulations, has been recently shown to be photosensitive (Igarashi et al., Anal Sci 23(8):943-8 (2007)) and to have the ability to produce H2O2 upon light exposure. […] Control vials were wrapped in aluminum foil and treated similarly. After light exposure, solutions were prepared for analysis by reverse-phase HPLC. […] Following incubation, 900 μL of the solution was combined with 100 μL of 1 M dithiothreitol (DTT) and incubated for another thirty minutes at 37° C. Samples were then run on an Agilent, Inc. 1100/1200 HPLC system (Santa Clara, Calif.) equipped with UV detection at 280 nm in conjunction with a Varian, Inc. Pursuit 3 μm, 2 mm ID×250 mm diphenyl column (Palo Alto, Calif.). Mobile Phase A was 0.1% TFA in water. Mobile Phase B was 0.1% TFA in acetonitrile. The mobile phase gradient increased linearly from 34% B at 0 minutes to 43% B at 50.0 minutes, then to 95% B at 50.1 minutes. The gradient remained at 95% B until 60.1 minutes, and then decreased linearly from 95% B to 34% B between 60.1 and 60.2 minutes. The gradient remained at 34% B until the end of the cycle at 80.2 minutes. The column temperature was 65° C., total flow rate was 0.2 mL/min, and injection volume of each sample was 6 μL. Chromatograms were then integrated for quantification of oxidation.

mAb1 [6] = assay: mAb1 Fenton stress study (H2O2 + Fe); Fab/Fc oxidation by RP-HPLC; assay type: physicochemical, human; details: 10 ppm H2O2, 0.2 mM Fe(III), 40° C. for 3 hours, no excipient
Experimental: Antioxidants were added at a final concentration of 1 mM. […] After incubation, each reaction was quenched by addition of 100 mM L-Met and then prepared for analysis by reverse-phase HPLC as described above.
The Fenton reaction, using a mixture of H2O2 and Fe ions, generates oxidation through a metal catalyzed, hydroxyl radical reaction (Prousek et al., Pure and Applied Chemistry 79(12):2325-2338 (2007)). This reaction generated Fab, i.e. tryptophan, oxidation in mAb1. The reaction was also carried out in the presence of select antioxidants that were useful against both AAPH and light induced oxidation as reported above. Data related to the antioxidant properties against Fenton mediated reaction were analyzed using the RP-HPLC assay as described above. The Fenton reaction used 10 ppm of H2O2 and 0.2 mM of Fe(III). The reaction was incubated at 40° C. for 3 hours, quenched with 100 mM L-Met and analyzed using RP-HPLC after papain digest. All samples were the average of three separate vials, and mAb1 control (Ref Mat) was one vial with five independent injections on the HPLC. […] In regards to protection against Fc oxidation, the tested excipients (other than salicylic acid) performed slightly better than L-Trp.

[7] = 16 hours of light at 250 W/m^2, excipient 1 mM
[8] = 1 mM in 20 mM histidine acetate pH 5.5, four hours of light at 250 W/m^2
[9] = 1 mM, 20 mM L-His-acetate pH 5.5, 4 h light, 0.22 million lux hours

Compound | Effect on light-induced Fab oxidation (in words) (mAb1 [1]; [7]) | (H2O2 produced by Compound)/(H2O2 produced by L-Trp) [2, 8] | H2O2 production upon light exposure compared to L-Trp (in words) [2, 9] | Oxidation Potential (anodic peak) [3] [V vs Ag/AgCl] | Fab (Trp residue) oxidation of mAb1 after AAPH incubation (mAb1 [4]) | Fc oxidation under light stress compared to no excipient control (in words) (mAb1 [1]; [7]) | Fab oxidation increase over the control level (mAb1 Ref Mat) (mAb1 [1]; [7]) [fold] | (H2O2 produced by Compound)/(H2O2 produced by L-Trp) ([2]; pH 5.5) | H2O2 production upon light exposure compared to L-Trp (in words) ([2]; pH 5.5) | Oxidation potential relative to L-Trp (in words) ([3]; cyclic voltammetry) | Effect on AAPH-induced Fab oxidation (in words) (mAb1 [4]; AAPH 24 hours at 40° C.) | Increase in Fc oxidation over the control level (mAb1 [1]; 16 hours of light at 250 W/m^2, no excipient) [%] | Fab oxidation of mAb1 (mAb1 [5]; 5 mg/mL mAb1, 8 h light at 250 W/m^2, L-Trp at 1 mM) [%] | Effect on Fc oxidation of mAb1 (in words) (mAb1 [5]; 8 h light at 250 W/m^2, L-Met 10, 25, 50, 100 mM added to 1 mM L-Trp) | Oxidation in the Fab region of mAb1 over the control (in words) (mAb1 [6])
Oc1ccc2[nH]ccc2c1 [5-Hydroxyindole, 5-Hydroxy Indole] | reducing Fab oxidation to near control levels | −0.08 | low levels of H2O2 production | 0.580 | about 2% |  |  |  |  |  |  |  |  |  | 
O=C(O)c1ccccc1O [Salicylic Acid] |  |  |  | 1.080 |  | more Fc oxidation | 8 | 0.03 | very little H2O2; also recorded: did not produce much H2O2 | higher oxidation potential than L-Trp | almost no effect on Fab oxidation |  |  |  | 
NCCc1c[nH]c2ccc(O)cc12 [Serotonin (5-Hydroxytryptamine), 5-hydroxytryptamine] | reducing Fab oxidation to near control levels | 0.03 | very little H2O2; also recorded: low levels of H2O2 production | 0.600 | about 2% |  |  |  |  |  |  |  |  |  | 
mAb1: monoclonal anti-DR5 antibody, drozitumab (CAS number 912628-39-8), human monoclonal IgG1 |  |  |  |  |  |  | 3.5 |  |  |  |  | 40 | 4 | only a minor increase in Fc oxidation | about four times the oxidation
